Test results: PubChem BioAssay (NCI)
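Dose response: 5 concentrations. Exposure: 48 h. Format: 96-well plates. Endpoint: linear interpolation; highest concentration if not reached. TGI denotes the concentration required for complete inhibition of growth.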

Assays:
Test in all cases: NCI-60 cell line screen, 48 h
[1] = system: 786-0 renal
[2] = system: A549 NSCLC
[3] = system: ACHN renal
[4] = system: BT-549 breast
[5] = system: CAKI-1 renal
[6] = system: COLO 205 colon
[7] = system: DU-145 prostate
[8] = system: EKVX NSCLC
[9] = system: HCC-2998 colon
[10] = system: HCT-116 colon
[11] = system: HCT-15 colon
[12] = system: HOP-62 NSCLC
[13] = system: HS 578T breast
[14] = system: IGROV1 ovarian
[15] = system: KM12 colon
[16] = system: LOX IMVI melanoma
[17] = system: M14 melanoma
[18] = system: MALME-3M melanoma
[19] = system: MCF7 breast
[20] = system: MDA-MB-231 breast
[21] = system: MDA-N
[22] = system: NCI-H226 lung
[23] = system: NCI-H23 lung
[24] = system: NCI-H460 lung
[25] = system: NCI-H522 lung
[26] = system: NCI/ADR-RES ovarian
[27] = system: OVCAR-3 ovarian
[28] = system: OVCAR-5 ovarian
[29] = system: OVCAR-8 ovarian
[30] = system: PC-3 prostate
[31] = system: RXF 393 renal
[32] = system: SF-268 CNS
[33] = system: SF-295 CNS
[34] = system: SF-539 CNS
[35] = system: SK-MEL-5 melanoma
[36] = system: SK-OV-3 ovarian
[37] = system: SNB-19 CNS
[38] = system: SNB-75 CNS
[39] = system: TK-10 renal
[40] = system: UACC-257 melanoma
[41] = system: UACC-62 melanoma
[42] = system: UO-31 renal
[43] = system: A498 renal
[44] = system: CCRF-CEM leukemia
[45] = system: HL-60(TB) leukemia
[46] = system: HOP-92 NSCLC
[47] = system: HT29 colon
[48] = system: K-562 leukemia
[49] = system: MDA-MB-435
[50] = system: MOLT-4 leukemia
[51] = system: OVCAR-4 ovarian
[52] = system: RPMI-8226 leukemia
[53] = system: SK-MEL-2 melanoma
[54] = system: SK-MEL-28 melanoma
[55] = system: SN12C renal
[56] = system: SW-620 colon
[57] = system: T-47D breast
[58] = system: U251 CNS

Which results are given for `CCOC(=O)c1cn2c(n1)sc1cccc(C)c12`?
TGI [1]: > 100 µM; TGI [2]: > 100 µM; TGI [3]: > 100 µM; TGI [4]: > 100 µM; TGI [5]: > 100 µM; TGI [6]: > 100 µM; TGI [7]: > 100 µM; TGI [8]: > 100 µM; TGI [9]: > 100 µM; TGI [10]: > 100 µM; TGI [11]: > 100 µM; TGI [12]: > 100 µM; TGI [13]: > 100 µM; TGI [14]: > 100 µM; TGI [15]: > 100 µM; TGI [16]: > 100 µM; TGI [17]: > 100 µM; TGI [18]: > 100 µM; TGI [19]: > 100 µM; TGI [20]: > 100 µM; TGI [21]: > 100 µM; TGI [22]: > 100 µM; TGI [23]: > 100 µM; TGI [24]: > 100 µM; TGI [25]: > 100 µM; TGI [26]: > 100 µM; TGI [27]: > 100 µM; TGI [28]: > 100 µM; TGI [29]: > 100 µM; TGI [30]: > 100 µM; TGI [31]: > 100 µM; TGI [32]: > 100 µM; TGI [33]: > 100 µM; TGI [34]: > 100 µM; TGI [35]: > 100 µM; TGI [36]: > 100 µM; TGI [37]: > 100 µM; TGI [38]: > 100 µM; TGI [39]: > 100 µM; TGI [40]: > 100 µM; TGI [41]: > 100 µM; TGI [42]: > 100 µM

Which results are given for `CC(C)=CCc1c2c(c3occ(-c4ccc(O)cc4)c(=O)c3c1O)CC(C(C)(C)O)O2` (centres undefined)?
TGI [1]: 35.6 µM; TGI [43]: 29.6 µM; TGI [2]: 27.8 µM; TGI [3]: 28 µM; TGI [4]: 31 µM; TGI [5]: 35.7 µM; TGI [44]: > 100 µM; TGI [6]: 30 µM; TGI [7]: 29.4 µM; TGI [9]: 23.2 µM; TGI [10]: 45.3 µM; TGI [11]: 30 µM; TGI [45]: 34.4 µM; TGI [12]: 33.6 µM; TGI [46]: 33.5 µM; TGI [13]: 69.5 µM; TGI [47]: 25.8 µM; TGI [14]: 12 µM; TGI [48]: 42.1 µM; TGI [15]: 35.5 µM; TGI [16]: 30.4 µM; TGI [17]: 28.2 µM; TGI [18]: 36.3 µM; TGI [19]: 28.3 µM; TGI [20]: 27.6 µM; TGI [49]: 30.5 µM; TGI [21]: 49.1 µM; TGI [50]: 31.8 µM; TGI [22]: 43 µM; TGI [23]: 36 µM; TGI [24]: 26 µM; TGI [25]: 34 µM; TGI [26]: 40.6 µM; TGI [27]: 27.9 µM; TGI [51]: 28.8 µM; TGI [28]: 33.8 µM; TGI [29]: 36.2 µM; TGI [30]: 26.7 µM; TGI [52]: 29.9 µM; TGI [31]: 30.3 µM; TGI [32]: 48.5 µM; TGI [33]: 25 µM; TGI [34]: 41.1 µM; TGI [53]: 28.1 µM; TGI [54]: 58.5 µM; TGI [35]: 30.1 µM; TGI [36]: 33 µM; TGI [55]: 38.5 µM; TGI [37]: 31.3 µM; TGI [38]: 31.9 µM; TGI [56]: 64.4 µM; TGI [57]: 34.1 µM; TGI [39]: 30.1 µM; TGI [58]: 25.9 µM; TGI [40]: 29.1 µM; TGI [41]: 30 µM; TGI [42]: 22.2 µM
